Test results published in publication PMC7673538 (PLoS Biology, 2020).
Read-outs that look alike come from different tables or passages of the source.

Legend:
EV-D68 = assay: microbe, parasite or virus in culture; format: cell-based, enterovirus D68; conditions: Enterovirus D
in vitro [1] = conditions: human
in vitro [2] = conditions: monkey
CV-A24 = assay: microbe, parasite or virus in culture; format: cell-based, coxsackievirus A24; conditions: Enterovirus C, CVA24, HeLa R19, read-out: EC50 CV-A24
HRV-B14 = assay: microbe, parasite or virus in culture; format: cell-based, human rhinovirus; conditions: Human rhinovirus sp.
CV-B3 [3] = assay: microbe, parasite or virus in culture; format: cell-based, coxsackievirus B3; conditions: for EC50: Enterovirus B
CV-B3 [4] = assay: microbe, parasite or virus in culture; format: cell-based, coxsackievirus B3; conditions: for EC50: Enterovirus B; remark: listed apart in the source
in vitro [5] = conditions: human; remark: listed apart in the source
CV-B3 [6] = assay: microbe, parasite or virus in culture; format: cell-based, coxsackievirus B3; conditions: Enterovirus B, CVB3, BGM
PV-1 = assay: microbe, parasite or virus in culture; format: cell-based, poliovirus 1; conditions: Enterovirus C, HeLa R19, read-out: EC50 PV-1
EV-A71 = assay: microbe, parasite or virus in culture; format: cell-based, enterovirus A71; conditions: Enterovirus A
HRV-A2 = assay: microbe, parasite or virus in culture; format: cell-based, human rhinovirus; conditions: Human rhinovirus sp., HRVA2, HeLa R19, read-out: EC50 HRV-A2
[7] = EVD68, HeLa R19, read-out: EC50 EV-D68
[8] = EVD68, HeLa R19, read-out: EC50 Exp1
[9] = EVD68, HeLa R19, read-out: EC50 Exp2
[10] = HRVB14, HeLa R19, read-out: EC50 HRV-B14
[11] = CVB3, HeLa R19, read-out: CV-B3 EC50 Average
[12] = CVB3, HeLa R19, read-out: CV-B3 Exp 1 EC50
[13] = CVB3, HeLa R19, read-out: CV-B3 Exp2 EC50
[14] = CVB3, HeLa R19, read-out: EC50 HelaR19 Average
[15] = CVB3, HeLa R19, read-out: Exp 1 EC50 HelaR19
[16] = CVB3, HeLa R19, read-out: Exp 2 EC50 HelaR19
[17] = CVB3, HAP1, read-out: EC50 Hap1 Average
[18] = CVB3, HAP1, read-out: Exp 1 EC50 Hap1
[19] = CVB3, HAP1, read-out: Exp 2 EC50 Hap1
[20] = EVA71, HeLa R19, read-out: EC50 EV-A71
[21] = HRVB14, HeLa R19, read-out: EC50 Exp1
[22] = HRVB14, HeLa R19, read-out: EC50 Exp2
[23] = EVA71, HeLa R19, read-out: EC50 Exp1
[24] = EVA71, HeLa R19, read-out: EC50 Exp2

Row | Structure (SMILES) | EC50 (EV-D68; [7]) | EC50 (EV-D68; [8]) | EC50 (EV-D68; [9]) | CC50 (in vitro [1]; CC50 Average) | CC50 (in vitro [1]; CC50 HelaR19 Average) | CC50 (in vitro [1]; Exp 1 CC50) | CC50 (in vitro [1]; Exp 1 CC50 HelaR19) | CC50 (in vitro [1]; Exp2 CC50) | CC50 (in vitro [1]; Exp 2 CC50 HelaR19) | CC50 (in vitro [2]; CC50 BGM Average) | CC50 (in vitro [2]; Exp 1 CC50 BGM) | CC50 (in vitro [2]; Exp 2 CC50 BGM) | EC50 (CV-A24) | EC50 (HRV-B14; [10]) | EC50 (CV-B3 [3]; [11]) | EC50 (CV-B3 [3]; [12]) | EC50 (CV-B3 [3]; [13]) | EC50 (CV-B3 [3]; [14]) | EC50 (CV-B3 [3]; [16]) | EC50 (CV-B3 [4]; [18]) | further results
1 | COc1ccc(N(Cc2ccccc2)C(=O)c2ccco2)cc1 [Compound 19c, N-Benzyl-N-(4-methoxyphenyl)furan-2-carboxamide] | 8.94 ± 0.82 µM | 8.12 µM | 9.76 µM | > 30 µM | > 100 µM | > 30 µM | > 100 µM | > 30 µM | > 100 µM | > 100 µM | > 100 µM | > 100 µM | > 30 µM | > 30 µM | 4.07 µM | 4.32 µM | 3.82 µM | 4.41 µM | 4.77 µM | 2.15 µM | CC50 (in vitro [2]; CC50): > 100 µM; cytotoxicity (in words) (HeLa R19 cells): did not show any cytotoxicity; increase or decrease of antiviral activity against CV-B3 (CV-B3 [3]): less than 3 fold; EC50 (CV-B3 [3]; CVB3, HeLa): 4.42 ± 0.36 µM; EC50 (CV-B3 [3]; [15]): 4.06 µM; EC50 (CV-B3 [4]; [17]): 2.12 µM; EC50 (CV-B3 [4]; [19]): 2.09 µM; CC50 (in vitro [5]; CC50): > 100 µM; CC50 (in vitro [5]; CC50 Hap1 Average): > 100 µM; CC50 (in vitro [5]; Exp 1 CC50 Hap1): > 100 µM; CC50 (in vitro [5]; Exp 2 CC50 Hap1): > 100 µM; EC50 (CV-B3 [6]; read-out: EC50 BGM Average): 4.3 µM; EC50 (CV-B3 [6]; read-out: Exp 1 EC50 BGM): 3.95 µM; EC50 (PV-1): > 30 µM; EC50 (EV-A71; [20]): > 30 µM; EC50 (HRV-A2): > 30 µM
2 | CC(C)c1ccc(CN(C(=O)c2ccco2)c2ccccc2)cc1 [Compound 19h, N-(4-Isopropylbenzyl)-N-phenylfuran-2-carboxamide] | > 30 µM | > 30 µM | > 30 µM | > 30 µM | 42.7 µM | > 30 µM | 44.5 µM | > 30 µM | 41 µM | 46.8 µM | 45.4 µM | 48.3 µM | > 30 µM | 4.64 ± 0.92 µM | 7.03 µM | 7.95 µM | 6.11 µM | 7.65 µM | 7.8 µM | 4.28 µM | CC50 (in vitro [2]; CC50): 46.8 ± 1.48 µM; EC50 (HRV-B14; [21]): 5.55 µM; EC50 (HRV-B14; [22]): 3.72 µM; CC50 (HeLa R19 cells; human): 42.8 ± 1.75 µM; cytotoxicity (in words) (HeLa R19 cells; human, monkey): cytotoxicity in a similar range as the parental compound 1; antiviral activity against CV-B3 (in words) (CV-B3 [3]): showed antiviral activity; effect of the substitution on antiviral activity against CV-B3 (in words) (CV-B3 [3]): decreased the antiviral activity to a larger extent; EC50 (CV-B3 [3]; CVB3, HeLa): 7.62 ± 0.93 µM; EC50 (CV-B3 [3]; [15]): 7.5 µM; antiviral activity against CV-B3 in HAP1 cells (in words) (CV-B3 [4]): showed antiviral activity; EC50 (CV-B3 [4]; [19]): 3.98 µM; CC50 (in vitro [5]; CC50 Hap1 Average): 48.7 µM; CC50 (in vitro [5]; Exp 1 CC50 Hap1): 48.4 µM; CC50 (in vitro [5]; Exp 2 CC50 Hap1): 49.1 µM; EC50 (CV-B3 [6]): > 100 µM; EC50 (PV-1): > 30 µM; EC50 (EV-A71; [20]): 1.89 ± 0.21 µM; EC50 (EV-A71; [23]): 1.68 µM; EC50 (EV-A71; [24]): 2.1 µM; EC50 (HRV-A2): > 30 µM
3 | O=C(c1ccc[nH]1)N(Cc1ccc(C(F)(F)F)cc1)c1ccccc1 [Compound 22, N-Phenyl-N-(4-(trifluoromethyl)benzyl)-1H-pyrrole-2-carboxamide] | 12.4 ± 0.81 µM | 11.6 µM | 13.2 µM | > 30 µM | > 100 µM | > 30 µM | > 100 µM | > 30 µM | > 100 µM | > 100 µM | > 100 µM | > 100 µM | > 30 µM | > 30 µM | 1.5 µM | 1.42 µM | 1.58 µM | 2.6 µM | 2.51 µM | 2.5 µM | CC50 (in vitro [2]; CC50): > 100 µM; cytotoxicity (in words) (HeLa R19 cells): did not show any cytotoxicity; effect of the substitution on antiviral activity against CV-B3 (in words) (CV-B3 [3]): little, if any, effect on antiviral activity; EC50 (CV-B3 [3]; [15]): 2.69 µM; EC50 (CV-B3 [4]; [17]): 2.69 µM; EC50 (CV-B3 [4]; [19]): 2.87 µM; CC50 (in vitro [5]; CC50): > 100 µM; CC50 (in vitro [5]; CC50 Hap1 Average): > 100 µM; CC50 (in vitro [5]; Exp 1 CC50 Hap1): > 100 µM; CC50 (in vitro [5]; Exp 2 CC50 Hap1): > 100 µM; EC50 (CV-B3 [6]; read-out: EC50 BGM Average): 2.28 µM; EC50 (CV-B3 [6]; read-out: Exp 1 EC50 BGM): 2.55 µM; EC50 (CV-B3 [6]; read-out: Exp 2 EC50 BGM): 2.01 µM; EC50 (PV-1): > 30 µM; EC50 (EV-A71; [20]): 1.27 ± 0.49 µM; EC50 (EV-A71; [23]): 0.78 µM; EC50 (EV-A71; [24]): 1.76 µM; EC50 (HRV-A2): > 30 µM
4 | COc1ccc(N(Cc2ccc(C(F)(F)F)cc2)C(=O)c2ccco2)cc1 [Compound 19e, N-(4-Methoxyphenyl)-N-(4-(trifluoromethyl)benzyl)furan-2-carboxamide] | 4.47 ± 0.26 µM | 4.72 µM | 4.21 µM | > 30 µM | 54 µM | > 30 µM | 53 µM | > 30 µM | 55 µM | 55.9 µM | 55 µM | 56.9 µM | > 30 µM | 8.38 ± 0.48 µM | 0.86 µM | 0.73 µM | 0.98 µM | 0.93 µM | 0.99 µM | 2.14 µM | EC50 (HRV-B14; [21]): 7.9 µM; EC50 (HRV-B14; [22]): 8.86 µM; cytotoxicity (in words) (HeLa R19 cells; human, monkey): cytotoxicity in a similar range as the parental compound 1; effect of the substitution on antiviral activity against CV-B3 (in words) (CV-B3 [3]): only marginally affected antiviral activity; EC50 (CV-B3 [4]; [17]): 2.85 µM; EC50 (CV-B3 [4]; [19]): 3.56 µM; CC50 (in vitro [5]; CC50 Hap1 Average): 54.9 µM; CC50 (in vitro [5]; Exp 1 CC50 Hap1): 55.3 µM; CC50 (in vitro [5]; Exp 2 CC50 Hap1): 54.5 µM; EC50 (CV-B3 [6]; read-out: EC50 BGM Average): 2.41 µM; EC50 (CV-B3 [6]; read-out: Exp 1 EC50 BGM): 2.05 µM; EC50 (CV-B3 [6]; read-out: Exp 2 EC50 BGM): 2.76 µM; EC50 (PV-1): > 30 µM; EC50 (EV-A71; EVA71, HeLa R19, read-out: EC50 Average): 4.07 µM; EC50 (EV-A71; [20]): 4.08 ± 0.99 µM; EC50 (EV-A71; [23]): 3.09 µM; EC50 (EV-A71; [24]): 5.06 µM; EC50 (HRV-A2): > 30 µM
